Results taken from patent US5047555A, “4-aminophenol derivatives and processes for preparing the same” (Tanabe Seiyaku Co., Ltd., priority 1988, dated 1991).

Test system: not given
Assay: not given
Details: stabilizer for polymers; cited from earlier work

**Q.** Which antioxidant activity does the source give for `CCCCCCCCCCCC(=O)Nc1cc(CC)c(O)c(C(C)(C)C)c1` [4-(lauroylamino)-2-ethyl-6-tert-butylphenol] here?
**A.** Its antioxidant activity is “antioxidant activity”.

**Q.** For `CCCCCCCCCCCCCCCCCC(=O)Nc1cc(C(C)(C)C)c(O)c(C(C)(C)C)c1` [4-(stearoylamino)-2,6-di-tert-butylphenol], which antioxidant activity is on record?
**A.** Its antioxidant activity is “antioxidant activity”.

Test system: Leukotriene B4 formation
Assay: Leukotriene B4 formation inhibitory activity (guinea pig neutrophil suspension)
Assay type: cell-based
Details: Cavia porcellus, 10^-6 M, guinea pig neutrophils, calcium ionophore A23187 and arachidonic acid, HPLC
Method: Leukotriene B4 formation inhibitory activity
A neutrophil suspension, prepared by administration of casein intraperitoneally to guinea pig, was treated with the test compound and challenged with calcium ionophore A23187 and arachidonic acid. After solvent extraction, leukotriene B4 was assayed by high performance liquid chromatography. The leukotriene B4 formation inhibitory activity of the test compound is expressed as % inhibition at the sample concentration of 10^-6 M. [Method of Douglass et al. described in Prostaglandins vol. 31, p. 358 (1986)]

**Q.** For `CC(=O)Oc1ccc(/C=C/C(=O)Nc2cc(C)c(O)c(C)c2)cc1OC(C)=O`, which inhibition at 1 µM is on record?
**A.** The inhibition at 1 µM was 82%.

**Q.** For `CC(C)=CCC/C(C)=C/C(=O)Nc1cc(C)c(O)c(C)c1`, which inhibition at 1 µM is on record?
**A.** The inhibition at 1 µM was 82.5%.

**Q.** Which inhibition at 1 µM does the source give for `CC(C)=CCC/C(C)=C\C(=O)Nc1cc(C)c(O)c(C)c1` here?
**A.** The inhibition at 1 µM was 95.3%.

**Q.** With `CC(C)=CCC/C(C)=C/CC/C(C)=C/C(=O)Nc1cc(C)c(O)c(C)c1` as the compound, how does the inhibition at 1 µM read?
**A.** Its inhibition at 1 µM is 90.5%.

**Q.** Which inhibition at 1 µM does the source give for `CC(C)=CCC/C(C)=C/CC/C(C)=C\C(=O)Nc1cc(C)c(O)c(C)c1` here?
**A.** Its inhibition at 1 µM is 98.5%.

**Q.** For `CCCCCCCC(=O)Nc1cc(CC)c(O)c(CC)c1` [both C2 H5, (CH2)6 CH3], which inhibition at 1 µM is on record?
**A.** Its inhibition at 1 µM is 85.6%.

**Q.** With `CCCCCCC(=O)Nc1cc(C)c(O)c(C)c1` [both CH3, (CH2)5 CH3] as the compound, how does the inhibition at 1 µM read?
**A.** Its inhibition at 1 µM is 53.1%.

**Q.** Which inhibition at 1 µM does the source give for `CCCCCCCC(=O)Nc1cc(C)c(O)c(C)c1` [both CH3, (CH2)6 CH3] here?
**A.** Its inhibition at 1 µM is 59.7%.

**Q.** For `CCCCCCCCC(=O)Nc1cc(C)c(O)c(C)c1` [both CH3, (CH2)7 CH3, 4-nonanoylamino-2,6-dimethylphenol], which inhibition at 1 µM is on record?
**A.** The inhibition at 1 µM was 57.3%.

**Q.** Which inhibition at 1 µM does the source give for `CCCCCCCC(=O)Nc1cc(C(C)C)c(O)c(C(C)C)c1` [both CH(CH3)2, (CH2)6 CH3] here?
**A.** Its inhibition at 1 µM is 69.5%.

**Q.** With `COc1cccc(/C=C/C(=O)Nc2cc(C)c(O)c(C)c2)c1` [drawing 42] as the compound, how does the inhibition at 1 µM read?
**A.** Its inhibition at 1 µM is 62.6%.

**Q.** For `COc1ccc(/C=C/C(=O)Nc2cc(C)c(O)c(C)c2)cc1` [drawing 43], which inhibition at 1 µM is on record?
**A.** The inhibition at 1 µM was 65.6%.

**Q.** Which inhibition at 1 µM does the source give for `CC(=O)Oc1ccc(CCC(=O)Nc2cc(C)c(O)c(C)c2)cc1OC(C)=O` [drawing 45] here?
**A.** The inhibition at 1 µM was 81.9%.

**Q.** For `COc1ccc(/C=C(\C)C(=O)Nc2cc(C(C)C)c(O)c(C(C)C)c2)cc1` [drawing 47], which inhibition at 1 µM is on record?
**A.** Its inhibition at 1 µM is 88.8%.

Molecular target: T1, 5-lipoxygenase (Rattus norvegicus, UniProt P12527)
T1 construct: An enzyme solution containing 5-lipoxygenase was prepared from cultured basophilic leukemia cell strain RBL-1 cells; endogenous in cells; host or cells: RBL-1 cells
T1 sequence (P12527 1-673): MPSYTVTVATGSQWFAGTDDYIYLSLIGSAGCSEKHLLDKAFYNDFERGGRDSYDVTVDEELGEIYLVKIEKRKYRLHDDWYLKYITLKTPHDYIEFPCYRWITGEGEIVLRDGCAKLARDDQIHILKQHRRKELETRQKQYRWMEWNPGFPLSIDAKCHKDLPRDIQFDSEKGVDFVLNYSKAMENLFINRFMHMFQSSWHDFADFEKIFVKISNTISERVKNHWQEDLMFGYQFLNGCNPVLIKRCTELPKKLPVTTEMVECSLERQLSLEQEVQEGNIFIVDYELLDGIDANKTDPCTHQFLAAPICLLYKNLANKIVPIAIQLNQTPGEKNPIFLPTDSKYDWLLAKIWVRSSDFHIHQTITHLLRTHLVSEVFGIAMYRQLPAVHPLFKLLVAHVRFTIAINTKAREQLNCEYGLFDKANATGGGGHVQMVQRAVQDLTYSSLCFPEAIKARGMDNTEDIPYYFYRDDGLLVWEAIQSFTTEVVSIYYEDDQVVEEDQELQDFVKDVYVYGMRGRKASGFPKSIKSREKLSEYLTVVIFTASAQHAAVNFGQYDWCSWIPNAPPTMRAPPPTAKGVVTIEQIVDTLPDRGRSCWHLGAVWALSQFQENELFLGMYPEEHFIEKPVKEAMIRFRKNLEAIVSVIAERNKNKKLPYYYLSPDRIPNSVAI
Assay: 5-Lipoxygenase inhibitory activity (5-HETE formation, enzyme solution from RBL-1 cells)
Assay type: biochemical
Details: radiolabelled arachidonic acid substrate, indomethacin, calcium chloride, ATP; RBL-1 enzyme
Method: An enzyme solution containing 5-lipoxygenase was prepared from cultured basophilic leukemia cell strain RBL-1 cells, and the reaction was carried out with radiolabelled arachidonic acid as the substrate in the presence of indomethacin, calcium chloride, adenosine triphosphate and the substance to be tested. A predetermined amount of the reaction mixture was spotted on a thin layer, separated by development, and then the radioactivity of the 5-HETE (5-hydroxyeicosatetraenic acid) fraction of the enzyme reaction product was measured to give the index of the 5-lipoxygenase activity. […] [Method of M. Furukawa et al. described in Biochimica et Biophysica acta, vol. 795, p. 458 (1984)]

**Q.** For `Cc1cc(NC(=O)c2cc3ccccc3s2)cc(C)c1O`, which IC50 is on record?
**A.** The IC50 was 210 nM.

**Q.** For `Cc1cc(NC(=O)/C=C/c2cccn2C)cc(C)c1O`, which IC50 is on record?
**A.** Its IC50 is 440 nM.

**Q.** With `CC=CC=CC(=O)Nc1cc(C)c(O)c(C)c1` as the compound, how does the IC50 read?
**A.** The IC50 was 400 nM.

**Q.** Which IC50 does the source give for `CC(C)c1cc(NC(=O)c2cccs2)cc(C(C)C)c1O` [4-(2-thienylcarbonyl)-amino-2,6-diisopropylphenol] here?
**A.** The IC50 was 150 nM.

**Q.** Which IC50 does the source give for `CCCCCCC(=O)Nc1cc(C)c(O)c(C)c1` [both CH3, (CH2)5 CH3] here?
**A.** The IC50 was 300 nM.

**Q.** Which IC50 does the source give for `CCCCCCCC(=O)Nc1cc(C)c(O)c(C)c1` [both CH3, (CH2)6 CH3] here?
**A.** Its IC50 is 330 nM.

**Q.** Which IC50 does the source give for `CCCCCCCCC(=O)Nc1cc(C)c(O)c(C)c1` [both CH3, (CH2)7 CH3, 4-nonanoylamino-2,6-dimethylphenol] here?
**A.** Its IC50 is 400 nM.

**Q.** With `Cc1cc(NC(=O)c2ccsc2)cc(C)c1O` [drawing 7] as the compound, how does the IC50 read?
**A.** The IC50 was 810 nM.

**Q.** Which IC50 does the source give for `Cc1ccc(C(=O)Nc2cc(C)c(O)c(C)c2)s1` [drawing 8] here?
**A.** Its IC50 is 270 nM.

**Q.** For `Cc1cc(NC(=O)/C=C/c2cccs2)cc(C)c1O` [drawing 11], which IC50 is on record?
**A.** The IC50 was 200 nM.

**Q.** For `Cc1cc(NC(=O)CCc2cccs2)cc(C)c1O` [drawing 13], which IC50 is on record?
**A.** The IC50 was 760 nM.

**Q.** For `COc1cccc(/C=C/C(=O)Nc2cc(C)c(O)c(C)c2)c1` [drawing 16], which IC50 is on record?
**A.** Its IC50 is 240 nM.

**Q.** Which IC50 does the source give for `COc1ccc(/C=C/C(=O)Nc2cc(C)c(O)c(C)c2)cc1` [drawing 17] here?
**A.** Its IC50 is 220 nM.

**Q.** Which IC50 does the source give for `COc1ccc(/C=C(\C)C(=O)Nc2cc(C)c(O)c(C)c2)cc1` [drawing 19] here?
**A.** Its IC50 is 150 nM.

**Q.** With `CC(=O)Oc1ccc(CCC(=O)Nc2cc(C)c(O)c(C)c2)cc1OC(C)=O` [drawing 20] as the compound, how does the IC50 read?
**A.** The IC50 was 200 nM.

**Q.** Which IC50 does the source give for `COc1ccc(CCC(=O)Nc2cc(C)c(O)c(C)c2)cc1` [drawing 21] here?
**A.** Its IC50 is 250 nM.

**Q.** For `COc1ccc(/C=C(\C)C(=O)Nc2cc(C(C)C)c(O)c(C(C)C)c2)cc1` [drawing 22], which IC50 is on record?
**A.** The IC50 was 150 nM.

Test system: Leukotriene C4 formation
Assay: Leukotriene C4 formation inhibitory activity (sensitized guinea pig lung fragments)
Assay type: cell-based
Details: Cavia porcellus; 10^-5 M; ovalbumin-sensitized guinea pig lung fragments, ovalbumin challenge in vitro, radioimmunoassay
Method: Leukotriene C4 formation inhibitory activity
Lung fragments of guinea pig sensitized with ovalbumin were treated with the test compound and challenged with ovalbumin in vitro. After solvent extraction, leukotriene C4 in the supernatant was determined by radioimmunoassay. The leukotriene C4 formation inhibitory activity of the test compound is expressed as % inhibition at the sample concentration of 10^-5 M.

**Q.** For `Cc1cc(NC(=O)c2cccs2)cc(C)c1O`, which inhibition at 10 µM is on record?
**A.** The inhibition at 10 µM was 76.6%.

**Q.** With `COc1cccc(CCC(=O)Nc2cc(C)c(O)c(C)c2)c1` as the compound, how does the inhibition at 10 µM read?
**A.** The inhibition at 10 µM was 66.9%.

**Q.** With `COc1ccc(CC(C)C(=O)Nc2cc(C)c(O)c(C)c2)cc1` (stereo not shown) as the compound, how does the inhibition at 10 µM read?
**A.** Its inhibition at 10 µM is 58.9%.

**Q.** For `COc1ccc(/C=C(\C)C(=O)Nc2cc(C(C)(C)C)c(O)c(C(C)(C)C)c2)cc1`, which inhibition at 10 µM is on record?
**A.** The inhibition at 10 µM was 58.3%.

**Q.** For `CC(C)c1cc(NC(=O)c2cccs2)cc(C(C)C)c1O` [4-(2-thienylcarbonyl)-amino-2,6-diisopropylphenol], which inhibition at 10 µM is on record?
**A.** The inhibition at 10 µM was 79.9%.

**Q.** With `Cc1cc(NC(=O)c2ccsc2)cc(C)c1O` [drawing 25] as the compound, how does the inhibition at 10 µM read?
**A.** Its inhibition at 10 µM is 62.9%.

**Q.** With `Cc1ccc(C(=O)Nc2cc(C)c(O)c(C)c2)s1` [drawing 27] as the compound, how does the inhibition at 10 µM read?
**A.** Its inhibition at 10 µM is 59%.

**Q.** For `Cc1cc(NC(=O)CCc2cccs2)cc(C)c1O` [drawing 28], which inhibition at 10 µM is on record?
**A.** Its inhibition at 10 µM is 45.8%.

**Q.** For `Cc1cc(NC(=O)/C=C/c2cccs2)cc(C)c1O` [drawing 30], which inhibition at 10 µM is on record?
**A.** The inhibition at 10 µM was 65%.

**Q.** For `COc1ccc(CCC(=O)Nc2cc(C)c(O)c(C)c2)cc1` [drawing 33], which inhibition at 10 µM is on record?
**A.** Its inhibition at 10 µM is 49.3%.

**Q.** For `COc1cccc(/C=C/C(=O)Nc2cc(C)c(O)c(C)c2)c1` [drawing 35], which inhibition at 10 µM is on record?
**A.** Its inhibition at 10 µM is 46%.

**Q.** Which inhibition at 10 µM does the source give for `COc1ccc(/C=C(\C)C(=O)Nc2cc(C)c(O)c(C)c2)cc1` [drawing 37] here?
**A.** Its inhibition at 10 µM is 58.1%.

Test system: lipoxygenase
Assay: not given
Details: cited from earlier work

**Q.** With `CCCc1cc(F)c2oc(C(=O)OCc3ccccc3)c(C)c2c1O` as the compound, how does the lipoxygenase inhibitory activity read?
**A.** The lipoxygenase inhibitory activity was “lipoxygenase inhibitory activity”.

**Q.** Which lipoxygenase inhibitory activity does the source give for `CCCc1cc(F)c2oc(C(=O)OCC)c(C)c2c1O` here?
**A.** The lipoxygenase inhibitory activity was “lipoxygenase inhibitory activity”.

**Q.** For `Cc1cnc(Nc2ccc(O)c(C(C)(C)C)c2C(C)(C)C)s1` [4-[2-(5-methyl)thiazolylamino]-2,3-di-tert-butylphenol], which lipoxygenase inhibitory activity is on record?
**A.** The lipoxygenase inhibitory activity was “lipoxygenase inhibitory activity”.

Test system: PCA (passive cutaneous anaphylaxis)
Assay: not given
Details: cited from earlier work

**Q.** For `COc1cc(C(=O)Nc2cc(Cl)c(O)c(Cl)c2)cc(OC)c1OC` [2,6-dichloro-4-(3,4,5-trimethoxybenzoyl)aminophenol], which “immune control activity or PCA inhibitory activity” value is on record?
**A.** The value was “immune control activity or PCA (passive cutaneous anaphylaxis) inhibitory activity”.
